Assay results taken from ChEMBL document CHEMBL5104193, “Hypoxia-Activated Prodrugs with Dual COX-2/CA Inhibitory Effects on Attenuating Cardiac Inflammation under Hypoxia” (J Med Chem, 2022).
Activity calls are given as the source filed them. The calls are words filed in the database; no cut-off is given here.

How the values were obtained:
H9c2 [1] = assay: Anti-inflammatory activity in LPS/hypoxia induced rat H9c2 cells assessed as reduction of IL-6 protein expression at 10 uM in presence of indomethacin by Western blot analysis; type: functional, cell-based
Rattus norvegicus [2] = assay: Antiinflammatory activity in LPS/talc powder induced pericarditic Wistar rat assessed as increase in cTNI level in serum at 20 mg/kg, ip pretreated for 2 hrs followed by LPS/tal powder stimulation measured after 48 hrs in presence of indomethacin (reference value: 0.167+/-0.025 ng/ml); type: functional; details: time 50 hrs
Rattus norvegicus [3] = assay: Antiinflammatory activity against LPS/talc powder induced pericarditic Wistar rat assessed as reduction in torsion T wave inversion at 20 mg/kg, ip pretreated for 2 hrs followed by LPS/tal powder stimulation measured after 48 hrs in presence of indomethacin by ECG analysis; type: functional, organism-based; details: time 50.0 hrs
H9c2 [4] = assay: Anti-inflammatory activity in LPS/hypoxia induced rat H9c2 cells assessed as reduction of TNF-alpha protein expression at 10 uM in presence of indomethacin by Western blot analysis; type: functional, cell-based
H9c2 [5] = assay: Anti-inflammatory activity in LPS/hypoxia induced cell injury in rat H9c2 cells assessed as reduction of IL-1beta protein expression at 10 uM in presence of indomethacin by Western blot analysis; type: functional, cell-based
Rattus norvegicus [6] = assay: Antiinflammatory activity in LPS/talc powder induced pericarditic Wistar rat assessed as increase in CK-MB level in serum at 20 mg/kg, ip pretreated for 2 hrs followed by LPS/tal powder stimulation measured after 48 hrs in presence of indomethacin (reference value: 4140+/-256.23 U/L); type: functional; details: time 50 hrs
H9c2 [7] = assay: Reversal of ATP level in LPS/hypoxia induced rat H9c2 cells in presence of indomethacin by multimode plate reader analysis (reference value: 21.37 nmol/mg); type: functional
Rattus norvegicus [8] = assay: Antiinflammatory activity against LPS/talc powder induced pericarditic Wistar rat assessed as reduction in U wave flattening at 20 mg/kg, ip pretreated for 2 hrs followed by LPS/tal powder stimulation measured after 48 hrs in presence of indomethacin by ECG analysis; type: functional, organism-based; details: time 50.0 hrs
H9c2 [9] = assay: Protection against LPS/hypoxia induced apoptosis in rat H9c2 cells assessed as reduction in red fluorescence by confocal microscopy analysis; type: functional, cell-based
H9c2 [10] = assay: Anti-inflammatory activity in rat H9c2 cells assessed as inhibition of endogenous IL-6 protein expression in presence of indomethacin by DAPI staining based immunofluorescence analysis; type: functional, cell-based
H9c2 [11] = assay: Inhibition of intracellular ROS level in LPS/hypoxia induced rat H9c2 cells in presence of indomethacin by DCFH-DA probe based fluorescence confocal microscopy analysis; type: functional, cell-based
H9c2 [12] = assay: Anti-inflammatory activity in rat H9c2 cells assessed as downregulation of cytochrome C expression at 10 uM in presence of indomethacin by Western blot analysis; type: functional, cell-based
[13] = Toxicity in Wistar rat assessed as change in BUN level in presence of indomethacin; details: in vivo
[14] = Toxicity in Wistar rat assessed as change in ALT level in presence of indomethacin; details: in vivo
H9c2 [15] = assay: Reversal of ATP level in LPS/hypoxia induced rat H9c2 cells in presence of indomethacin and Na2WO4 by multimode plate reader analysis; type: functional, cell-based
H9c2 [16] = assay: Reversal of LPS/hypoxia induced mitochondrial membrane potential loss in rat H9c2 cells assessed as increase in JC-1 polymer morphology in presence of indomethacin by JC-1 dye based flow cytometry analysis; type: functional, cell-based; details: time 20.0 min
H9c2 [17] = assay: Inhibition of intracellular ROS level in LPS/hypoxia induced rat H9c2 cells in presence of indomethacin and Na2WO4 by DCFH-DA probe based fluorescence confocal microscopy analysis; type: functional, cell-based
Rattus norvegicus [18] = assay: Antiinflammatory activity against LPS/talc powder induced pericarditic Wistar rat assessed as reduction in heart swelling at 20 mg/kg, ip pretreated for 2 hrs followed by LPS/tal powder stimulation measured after 48 hrs in presence of indomethacin; type: functional, organism-based; details: time 50.0 hrs
H9c2 [19] = assay: Anti-inflammatory activity in rat H9c2 cells assessed as downregulation of cytochrome C expression at 10 uM by Western blot analysis; type: functional, cell-based
H9c2 [20] = assay: Protection against LPS/hypoxia induced apoptosis in rat H9c2 cells assessed as reduction in red fluorescence in presence of indomethacin by confocal microscopy analysis; type: functional, cell-based
H9c2 [21] = assay: Anti-inflammatory activity in LPS/hypoxia induced rat H9c2 cells assessed as increase in VEGF expression at 10 uM in presence of indomethacin by Western blot analysis; type: functional, cell-based
H9c2 [22] = assay: Reversal of LPS/hypoxia induced mitochondrial membrane potential loss in rat H9c2 cells in presence of indomethacin by JC-1 dye based flow cytometry analysis; type: functional, cell-based
Rattus norvegicus [23] = assay: Antiinflammatory activity against LPS/talc powder induced pericarditic Wistar rat assessed as elimination of pericardial effusion at 20 mg/kg, ip pretreated for 2 hrs followed by LPS/tal powder stimulation measured after 48 hrs in presence of indomethacin; type: functional, organism-based; details: time 50.0 hrs
H9c2 [24] = assay: Protection against LPS/hypoxia induced apoptosis in rat H9c2 cells assessed as reduction in necrotic cells at 10 umol/L incubated for 4 hrs under hypoxia condition in presence of Indomethacin by AnnexinV-FITC/propidium iodide staining based flow cytometry analysis (reference value: 31.02%); type: functional; parameters: scale not given: the % may be the effect or the level left; details: dose 10 µmol/L, at 10 µM
H9c2 [25] = assay: Protection against LPS/hypoxia induced apoptosis in rat H9c2 cells assessed as reduction in necrotic cells at 10 umol/L incubated for 4 hrs under hypoxia condition by AnnexinV-FITC/propidium iodide staining based flow cytometry analysis (reference value: 31.02%); type: functional; parameters: scale not given: the % may be the effect or the level left; details: dose 10 µmol/L, at 10 µM
H9c2 [26] = assay: Protection against LPS/hypoxia induced cell injury in rat H9c2 cells assessed as recovery of cell viability in presence of indomethacin and Na2WO4 by CCK-8 assay; type: functional, cell-based
[27] = Toxicity in Wistar rat assessed as change in CRE level in presence of indomethacin; details: in vivo
H9c2 [28] = assay: Protection against LPS/hypoxia induced apoptosis in rat H9c2 cells assessed as reduction in green fluorescence in presence of indomethacin by confocal microscopy analysis; type: functional, cell-based
H9c2 [29] = assay: Protection against LPS/hypoxia induced cell injury in rat H9c2 cells assessed as recovery of cell viability in presence of indomethacin by CCK-8 assay (reference value: 69.0%); type: functional
NTR = assay: Stability of the compound assessed as NTR (unknown origin) mediated hydrolysis by measuring half life by UV spectrophotometry; type: ADME; details: human, NTR enzyme

Compound: NS(=O)(=O)c1nnc(NC(=O)CCCCc2cn(CC(=O)O)nn2)s1
- Activity (H9c2 [1]): Active
- Activity (Rattus norvegicus [2]): 0.121 ng/mL
- Activity (Rattus norvegicus [3]): Active
- Activity (H9c2 [4]): Active
- Activity (H9c2 [5]): Active
- Activity (Rattus norvegicus [6]): 2620 U/L
- Activity (H9c2 [7]): 47.52 nmol/mg
- Activity (Rattus norvegicus [8]): Active
- Activity (H9c2 [9]): Active
- Activity (H9c2 [10]): Active
- inhibition (H9c2 [11]): Active
- Activity (H9c2 [12]): Active
- Activity [13]: Toxic
- Activity [14]: Toxic
- Activity (H9c2 [15]): Active
- Activity (H9c2 [16]): Active
- inhibition (H9c2 [17]): Active
- Activity (Rattus norvegicus [18]): Active
- Activity (H9c2 [19]): Active
- Activity (H9c2 [20]): Active
- Activity (H9c2 [21]): Active
- Activity (H9c2 [22]): Active
- Activity (Rattus norvegicus [23]): Active
- Activity (H9c2 [24]): 9.61%
- Activity (H9c2 [25]): 23.78%
- Activity (H9c2 [26]): Active
- Activity [27]: Toxic
- Activity (H9c2 [28]): Active
- Activity (H9c2 [29]): 91.8%
- half-life (NTR): 8.3 min
